Bounds are passed on as bounds.

Our source for the melting point values is a melting point compilation (Tetko et al.; mined from patent text by program, amines drawn as free bases though some values may be those of a salt).

With `NS(=O)(=O)c1cc(C(=O)O)cc(C(F)(F)F)c1`, the melting point (as a rule, the temperature, or range, at which the solid turns liquid) lay within 244 to 246 °C.
To `CCCc1ccc(-c2ccc(-c3ccc(CC)cc3)cc2F)s1` belongs 41 °C; to `O=C(N1Cc2ccccc2Nc2ccccc21)C(F)(F)F`, 140 to 141 °C; to `N#CSc1cc(Cl)c(NCCC(=O)O)cc1Cl`, 133 to 135 °C.
To `O=C(c1ccc(F)c(F)c1)N1CCC[C@H](c2nc(-c3ccncc3)no2)C1` belongs 102 to 106 °C.
For `NCC1COc2cc(F)cc(-c3ccccc3F)c2N1` (stereo unspecified) the value was 77 °C; for `CCn1c2ccccc2c2cc(NC(=S)NNC(C)=O)ccc21`, 197 to 199 °C.
As to `C[C@@H](CCOC(N)=O)CN1CCC(c2noc3cc(F)ccc23)CC1`, the melting point is 72 to 74 °C.
`NC1CCC(CC2CCC(Nc3ncc4ncnc(Nc5ccc(F)c(Cl)c5)c4n3)CC2)CC1` (stereo unspecified) registered a melting point of 164 to 166 °C.
For `CCCc1nc2c(N)nc3cc(OCCCNS(C)(=O)=O)ccc3c2n1CC(C)C` the value was 166 to 168 °C; for `O=C(O)c1cccc2cc(-c3ccccc3)oc12`, 212 to 214 °C.
For `CCN(CC)S(=O)(=O)c1cc2c(c(C(=O)O)c1)OCCO2`, the melting point came to 149 °C.
For `O=C(NCCO)c1cccc(-c2cccc3c2CN(Cc2cccc(C(F)(F)F)c2)C3=O)c1` the value was 148 to 149 °C.
For `c1cc(OCC2CO2)c2cnsc2c1` (stereo unspecified) the value was 90 to 91 °C; for `NCCNC(=O)c1ccc2c(c1)OCO2`, 120 to 123 °C; for `CCC(COC)Nc1nc(C)nc(N2CCc3cc(OC)cc(Cl)c32)c1I` (stereo unspecified), 150 to 152 °C.
To `C=Cc1cc(C(F)(F)F)ccc1-c1cc(Oc2cccc3sc(NC(C)=O)nc23)ncn1` belongs 234 to 237 °C; to `Cc1cc(=O)c(-c2ccc(C#N)cc2)c(C)[nH]1`, 192 to 195 °C.
As to `COc1ccc2c(c1OC)C(=O)c1c-2c(N2CCNCC2)nc2ccc(Cl)cc12`, the melting point was 168 to 169 °C.
For `CCN(CC)CCCN1CCN(c2cc(-c3ccnc(NCc4cccc(OC)c4)n3)cc3ccc(OC)cc23)CC1` the value was 156 to 160 °C; for `CON=Cc1ccc2c(c1)ncn2-c1cccc(-c2ncccn2)c1`, 158 to 159 °C.
In the case of `CCC1=C(C(=O)Nc2ccc(Cl)c(C(=O)OC(C)C)c2)SCCO1`, the melting point lay within 90 to 92 °C.
In the case of `CCCSC1NC(c2ccc(Cl)cc2)=NN(CC(F)(F)F)C1=O` (stereo unspecified), the melting point lay in the range of 99 to 100 °C.
As for `OCc1cc(N2CCCCC2)ncn1`, the melting point fell in the range of 70 to 72 °C.
As to `CSCC(NCc1cc(Br)cc(Br)c1N)C(=O)O` (stereo unspecified), the melting point turned out to be 240 °C.
In the case of `O=C(O)c1cccc(-c2ccc(OC[C@H](O)CCc3cccnc3)cc2)c1`, the melting point was 165 to 168 °C.
On to `Nc1cccc(C(=O)c2cccc3ccccc23)c1O`, for which the melting point was 211 °C.
For `CC(C)CN(CC(O)C(Cc1ccccc1)NC(=O)C(CC(N)=O)NC(=O)c1ccc2ccccc2n1)C(=O)NC(C)(C)C` (stereo unspecified) the value was 107 to 110 °C.
For `COc1cc(OC)c(S(=O)(=O)Cl)cc1-c1nc2nccnc2[nH]1`, the melting point lay in the range of 294 to 296 °C.
To `O=C1C(=Cn2ccnc2)c2ccccc2N1c1ccccc1` belongs 158 to 161 °C.
Turning to `CCCCOC(=O)c1cc([N+](=O)[O-])ccc1N`, the melting point was in the range of 91 to 93 °C.
Turning to `O=C1Nc2cc(F)ccc2N2CCN(Cc3ccncc3)CC12` (stereo unspecified), the melting point lay in the range of 269 to 272 °C.
As to `CC(=O)N1CCC(C(=O)N2CC[C@@H](N(C)C(=O)c3ccc(C4CC4)cc3)[C@H](c3ccc(Cl)c(Cl)c3)C2)CC1`, the melting point was 129 to 133 °C.
In turn, `CCCCCc1ccc(-c2ccc(C(=O)O)cc2)cc1` returned a melting point of 174 °C.
Molecule `O=C(c1cc(-c2ccccc2)c(=O)n2c1-c1ccccc1C2)N1CCN(c2ccccc2)CC1` had a melting point of 208 to 210 °C.
Molecule `CCc1nc2c(cnn2CC)c(NC2CCOCC2)c1CNC(=O)c1cccc(C(=O)NCc2ccc(Cl)c(-c3cccc(CN4CCCN(C)CC4)c3)c2)c1` gave a melting point of 105 to 107 °C.
For `COC(=O)c1cc(F)c(C(F)(F)F)cc1[N+](=O)[O-]` the value was 66 to 68 °C.
For `CS(=O)(=O)Nc1ccc2c(c1)c(C(=O)C(=O)NC1=CC(=O)OC1)cn2Cc1ccc(C(F)(F)F)cc1` the value was 267 to 269 °C; for `COc1ccc(-c2ccc(-c3ccc(C(F)(F)F)cc3)nc2-c2ccc(OC)cc2)cc1`, 144 to 147 °C; for `NC(=O)OCC1COC(C(F)(F)Cl)(C(F)(F)Cl)O1` (stereo unspecified), 56 to 57 °C.
For `N#CSc1c(-c2ncon2)nn(-c2c(Cl)cc(C(F)(F)F)cc2Cl)c1N`, the melting point lay within 195 to 198 °C.
To `CCc1nnc(-c2ccc(OC)cc2)n1-c1cccc(C(F)(F)F)c1` belongs 140 °C; to `O=C(Nc1ccc(-n2nc(C(F)(F)F)cc2C(F)(F)F)cc1)Nc1ccc(Cl)cc1[N+](=O)[O-]`, 225 to 227 °C.
To `CCc1nc(-c2ccc(OCCCc3ccccc3)cc2)no1` belongs 41 to 42 °C.
To `COc1ccc(NC=C2C(=O)OC(=O)c3cc4cccc(C)c4nc32)cc1OC` belongs 280 to 281 °C; to `O=C(O)C1CCN(Cc2ccc(Cl)c(Cl)c2)CC1`, 232 °C; to `ClCc1cccc(OCc2ccc3ccccc3n2)c1`, 39 to 43 °C.
As for `CCCCCN=C1SC(=CC(=O)O)C(=O)N1CCCCC`, the melting point fell in the range of 85 to 88 °C.
For `COC(=O)COc1ccc2cc(-c3cnc(Cc4ccccc4)o3)ccc2c1` the value was 236 to 238 °C; for `OCc1cnc2ccc(Cl)cc2c1O`, greater than 300 °C; for `CCOP(=O)(/C=C/C=C/c1cn(-c2ccccc2)nc1OCc1ccc(OCc2nc(-c3ccco3)oc2C)c(OC)c1)OCC`, 143 to 144 °C.
In turn, `NC(=O)c1ncn2c1CN=C(c1ccccc1F)c1cc(Cl)ccc1-2` had a melting point of 292 to 294 °C.
As for `O=C1Nc2ncc(Br)cc2C1(Br)Br`, the melting point was 157 to 158 °C.
For `N#Cc1ccc2c(c1)ncn2-c1cccc(I)c1`, the melting point lay within 177 to 179 °C.
To `COC(=O)c1c[nH]c2ccc(N)cc12` belongs 217 to 219 °C; to `CS(=O)c1nnc(-c2ccccc2NC(=O)c2cccc(C(F)(F)F)c2)s1` (stereo unspecified), 125 to 126 °C.
`CCC(C)(N)Cc1c[nH]c2ccccc12` (stereo unspecified) came in with a melting point of 112 °C.
In turn, `Cc1cccc(-c2[nH]c(C(C)(C)C)nc2-c2ccnc(-c3ccc(CN(C)C)cc3)c2)n1` came in with a melting point of 187 °C.
For `C=CCOc1ccc2c(c1CC=C)NC(=O)CC2` the value was 119 to 121 °C; for `COc1cc2c(cc1OC)CN(CC(O)CN1CCC(c3noc4cc(F)ccc34)CC1)CC2` (stereo unspecified), 153 to 154 °C; for `O=C1CCC(c2ccccc2)(c2ccccc2)C2CN(C(Cc3ccccc3)=NCc3cccc4ccccc34)CC12` (stereo unspecified), 192 °C.
The molecule `CCN1C(=O)C(C(=O)c2ccco2)c2cc(Cl)cnc21` (stereo unspecified) registered a melting point of 162 to 163 °C.
The molecule `N#Cc1ccc(-c2ccc(S(=O)(=O)NCc3ccncc3)cc2)cc1` had a melting point of 198 to 202 °C.
As to `CN1C2CCC1CN(C(=O)c1ccco1)C2`, the melting point turned out to be 106 °C.
Molecule `COC(=O)c1ccccc1-c1ccc(CBr)cc1` showed a melting point of 51 to 53 °C.
`Oc1ccc2c(c1)SCCc1c-2n(CCCCCN2CCCC2)c2ccccc12`: the melting point was determined as 158 °C.
On to `O=C(O)CCCCCCCCCCc1ccc(Cl)cc1`, for which the melting point amounted to 93 °C.
For `C=C1C[C@@H]2[C@H](CC[C@]3(C)C(=O)CC[C@@H]23)[C@@]2(C)CCC(=O)C(S)=C12` the value was 195 to 197 °C.
For `COC(=O)c1ccc(C#C[Si](C)(C)C)cn1` the value was 45 °C.
For `COC(=O)CCC#Cc1ccc(C(F)(F)F)cc1N`, the melting point was found to be 42 °C.
Consider `O=S(=O)(c1ccccc1)n1ccc2c(OCCCl)cccc21`, for which the melting point lay within 85 to 87 °C.
`Cn1nc(-c2cc(C=O)c(Cl)cc2F)c(Cl)c1C(F)(F)F` came in with a melting point of 70 to 72 °C.
For `CN(CC(N)=O)S(=O)(=O)Cc1cccc(C(F)(F)F)c1` the value was 146 to 148 °C; for `CC(C)C(C)(C#N)N1C(=O)c2cc3ccccc3nc2C1=O` (stereo unspecified), 195 to 196 °C.
To `Cn1c(-c2ccccc2)c(CCC(=O)O)c2ccccc2c1=O` belongs 138 to 140 °C; to `Nc1ccc(C(=O)NCC(=O)O)cc1F`, 198 to 200 °C.
For `CSc1ncc2cc(-c3c(Cl)cccc3Cl)c(=N)n(C)c2n1` the value was 198 to 200 °C; for `Cc1cc(Cl)cc(C(=O)NC(C)C2CC2)c1NC(=O)c1cc(Br)nn1-c1ccccc1Cl` (stereo unspecified), 180 to 181 °C.
Take `CCC(CC)n1cc(Cl)nc(N2CCc3cc(Cl)cc(Cl)c32)c1=O`: the melting point lay within 168 to 170 °C.
In the case of `NC(=S)c1c(F)c(F)c(F)c(F)c1F`, the melting point was in the range of 92 to 93 °C.
In the case of `CC(C)(C)c1cc(CCc2ccccc2NC(=O)N2CCN(C(=O)c3cccnc3)CC2)cc(C(C)(C)C)c1O`, the melting point was 171 to 172 °C.
With `O=S(Cc1ccccc1)c1ncc(Br)cn1` (stereo unspecified), the melting point turned out to be 101 °C.
To `CN(C)CCCC(=O)N1CCC(c2[nH]nc3c2C(=O)c2c(NC(=O)NN4CCOCC4)cccc2-3)CC1` belongs 145 to 147 °C.
`Cc1nn(C)c2c(Cl)nc(C3CC3)nc12` came in with a melting point of 87 to 90 °C.
The molecule `OC(c1ccc2c(c1)SCCN2)(C(F)(F)F)C(F)(F)F` returned a melting point of 99 to 100 °C.
`O=[N+]([O-])c1ccc(I)c(C(F)(F)F)c1`: the melting point fell in the range of 81 to 82 °C.
To `C=C(C#N)C(=O)NCCCc1ccccc1` belongs 83 °C; to `O=C(O)COc1nc(F)c(Cl)cc1Cl`, 140 to 144 °C; to `Cc1ccc2c(c1)-c1ncnn1CC(=O)N2`, 206 to 208 °C.
For `C#CCOc1ccc2c(c1)c(-c1ccc(C(C)C)cc1)nc(=O)n2Cc1cccc(O)c1` the value was 230 °C; for `Cc1[nH]c2ccccc2c1CSCCN1CC=C(c2ccccc2)CC1`, 182 °C.
